Results reported in patent publication US20090011013A1, “Tacrolimus Combination Products” (LIFECYCLE PHARMA A/S, priority 2005, published 2009).
Where two headings read alike, the source gives them in different places.

Columns and labels:
[1] = tested on: Canine Lung Allotransplantation; conditions: dogs, cited from earlier work
[2] = rats, cited from earlier work
[3] = cited from earlier work
[4] = three-way crossover pilot bioavailability study of Prograf and Neoral combinations vs. Prograf; type: in vivo, human
[5] = oral, cited from earlier work
[6] = cited from earlier work; remark: listed apart in the source

increase in tacrolimus bioavailability ([4]; tacrolimus and cyclosporine in a ratio of 1:20): above 100% | increase of bioavailability of tacrolimus ([4]; tacrolimus and cyclosporine in the ratio of 1:2): 30%
Compound: C=CC[C@@H]1/C=C(\C)C[C@H](C)C[C@H](OC)[C@H]2O[C@@](O)(C(=O)C(=O)N3CCCC[C@H]3C(=O)O[C@H](/C(C)=C/[C@@H]3CC[C@@H](O)[C@H](OC)C3)[C@H](C)[C@@H](O)CC1=O)[C@H](C)C[C@@H]2OC [Tacrolimus]
blood concentration of tacrolimus, combination vs alone at same dose ([1]; group E vs group C): not significant higher | immunosuppressive effect ([1]; i.m. 0.03 mg/kg/day (suboptimal dose)): rejection | immunosuppressive effect ([1]; i.m. 0.1 mg/kg/day (optimal dose)): adequate immunosuppression | hepatic extraction ratio ([2]; calculated): 60% | intestinal extraction ([2]; calculated): 34% | bioavailability ([2]; intestinal administration): ~25% | bioavailability ([2]; intraportal administration (infusion over 1 hour)): about 40% | solubility in chloroform ([3]; chloroform): very soluble | solubility in ethanol ([3]; ethanol): freely soluble | solubility in methanol ([3]; methanol): very soluble | solubility in water ([3]; water): practically insoluble | time to reach peak ([5]; most patients): ≤ 1 h | time to reach peak ([5]; some patients): ≥ 4 h | bioavailability ([6]; after oral administration): ≤ 20% | mean time-to-peak concentration (tmax) ([6]; oral, healthy subjects or kidney or liver transplanted patients): 1 to 2 h
